# Test results taken from US8222278B2, “Treatment of attention-deficit/hyperactivity disorder” (Abbott Laboratories, priority 2008, dated 2012).
# Read-outs that look alike come from different tables or passages of the source.
# Columns and labels:
# [1] = test system: adults with ADHD; conditions: human, in vivo, 4 weeks
# Experimental: During each visit, blood pressure, heart rate, weight, medication accountability and tolerability, and adverse effects were assessed.
# The safety dataset consisted of all subjects who took at least one dose of study drug. The reasons for discontinuation and the treatment-emergent adverse events were summarized by the treatment under which the discontinuation or event was reported.
# Treatment-emergent adverse events were those that began or worsened following the first dose of study drug in Period 1. Adverse event monitoring was conducted at each study visit and until 30 days following discontinuation of study drug. Other routine safety assessments included vital signs, electrocardiograms, physical examinations, brief neurological examinations and laboratory tests.
# [2] = test system: adults with ADHD; assay: Study A: weight and vital signs; type: in vivo, human; conditions: final evaluation (LOCF)
# Experimental: The treatment group differences in vital signs were analyzed using a Grizzle Model similar to the model used for the efficacy analyses with the exclusion of period-specific baselines.
# [3] = Steady state pharmacokinetics of ABT-894 after multiple oral doses; type: in vivo, human; conditions: for Cave / Cmin / Cmax / AUC: multiple doses, steady state; for Tmax: QD or BID
# Experimental: Steady state pharmacokinetic parameters of ABT-894 were determined in randomized, double-blind, placebo-controlled, parallel-design or crossover-design studies conducted with ABT-894. In these studies ABT-894 or matching placebo was administered orally either once daily (QD) or twice daily (BID) to subjects and serial blood samples were collected in order to determine ABT-894 plasma concentrations and pharmacokinetic parameters.
# As used herein, Cmax refers to peak plasma concentration of a therapeutic agent, in this case ABT-894, under steady state conditions.
# As used herein, Cave refers to average plasma concentration of a therapeutic agent. in this case ABT-894, under steady state conditions.
# As used herein, Cmin refers to the minimum plasma concentration of a therapeutic agent, in this case ABT-894, under steady state conditions.
# As used herein. Tmax refers to the time required to reach peak concentration.
# As used herein, AUC12 refers to the area under the curve determined for 12 hours.
# As used herein. AUC24 refers to the area under the curve determined for 24 hours.
structure (smiles),measurement,setting,value
"Clc1cc(N2C[C@@H]3CN[C@@H]3C2)cnc1Cl [ABT-894, 3-(5,6-Dichloro-pyridin-3-yl)-1S,5S-3,6-diazabicyclo[3.2.0]heptane]","Influenza-like illness, % of subjects",[1],(0) %
same,"Influenza-like illness, number of subjects",[1],0 subjects
same,"Diastolic BP, mean difference from placebo",[2]; ABT-894 1 mg QD,0.28 mm Hg
same,"Pulse, mean difference from placebo",[2]; ABT-894 1 mg QD,−0.24 bpm
same,"Systolic BP, mean difference from placebo",[2]; ABT-894 1 mg QD,1.36 mm Hg
same,"Weight, mean difference from placebo",[2]; ABT-894 1 mg QD,0.48 kg
same,"Diastolic BP, mean difference from placebo",[2]; ABT-894 2 mg QD,0.62 mm Hg
same,"Pulse, mean difference from placebo",[2]; ABT-894 2 mg QD,0.42 bpm
same,"Systolic BP, mean difference from placebo",[2]; ABT-894 2 mg QD,1.07 mm Hg
same,"Weight, mean difference from placebo",[2]; ABT-894 2 mg QD,0.09 kg
same,"Diastolic BP, mean difference from placebo",[2]; ABT-894 4 mg BID,−2.21 mm Hg
same,"Pulse, mean difference from placebo",[2]; ABT-894 4 mg BID,0.98 bpm
same,"Systolic BP, mean difference from placebo",[2]; ABT-894 4 mg BID,−0.48 mm Hg
same,"Weight, mean difference from placebo",[2]; ABT-894 4 mg BID,-0.08 kg
same,"Diastolic BP, mean difference from placebo",[2]; ABT-894 4 mg QD,0.23 mm Hg
same,"Pulse, mean difference from placebo",[2]; ABT-894 4 mg QD,3.14 bpm
same,"Systolic BP, mean difference from placebo",[2]; ABT-894 4 mg QD,−0.08 mm Hg
same,"Weight, mean difference from placebo",[2]; ABT-894 4 mg QD,0.04 kg
same,Cave,"[3]; 2 mg QD, plasma",about 2 ng/mL
same,Cmin,"[3]; 2 mg QD, plasma",about 0.3 ng/mL
same,Cave,"[3]; 4 mg BID, plasma",6 to 10 ng/mL
same,Cmin,"[3]; 4 mg BID, plasma",2 to 4 ng/mL
same,Cmax,"[3]; human, oral, 2 mg QD, plasma",~5 ng/mL
same,AUC,"[3]; human, oral, 2 mg QD, plasma, read-out: AUC24",~46 ng·h/mL
same,Cmax,"[3]; human, oral, 4 mg BID, plasma",11 to 15 ng/mL
same,AUC,"[3]; human, oral, 4 mg BID, plasma, read-out: AUC12",72 to 114 ng·h/mL
same,Tmax,"[3]; human, plasma, po, read-out: Tmax",2 to 4 h
same,Tmax,[3]; oral,2 to 3 h
